Data reported in ChEMBL document CHEMBL5137080, “Discovery of Novel 7-Hydroxy-5-oxo-4,5-dihydrothieno[3,2-b]pyridine-6-carboxamide Derivatives with Potent and Selective Antifungal Activity against Cryptococcus Species” (J Med Chem, 2022).
Active and inactive are the calls of the source. No cut-off for these calls is given here.

What was measured:
Candida tropicalis [1] = assay: Synergistic antifungal activity against Candida tropicalis ATCC20026 assessed as fractional inhibitory concentration index incubated for 48 hrs in presence of P163-0892 by broth microdilution method; assay type: functional
Candida parapsilosis [2] = assay: Synergistic antifungal activity against Candida parapsilosis ATCC22019 assessed as fractional inhibitory concentration index incubated for 48 hrs in presence of P163-0892 by broth microdilution method; assay type: functional
Nakaseomyces glabratus [3] = assay: Antifungal activity against Candida glabrata ATCC1182 assessed as fungal growth inhibition incubated for 48 hrs in presence of P163-0892 by broth microdilution method; assay type: functional
Cryptococcus neoformans [4] = assay: Antifungal activity against Cryptococcus neoformans clinical isolate HN19 assessed as fungal growth inhibition incubated for 72 hrs in presence of P163-0892 by broth microdilution method; assay type: functional
Pichia kudriavzevii = assay: Synergistic antifungal activity against Candida krusei ATCC2340 assessed as fractional inhibitory concentration index incubated for 48 hrs in presence of P163-0892 by broth microdilution method; assay type: functional
Cryptococcus neoformans [5] = assay: Antifungal activity against Cryptococcus neoformans H99 assessed as fungal growth inhibition incubated for 72 hrs in presence of P163-0892 by broth microdilution method; assay type: functional
Cryptococcus gattii = assay: Antifungal activity against Cryptococcus gattii WM179 assessed as fungal growth inhibition incubated for 72 hrs in presence of P163-0892 by broth microdilution method; assay type: functional, Cryptococcus gattii species complex
Nakaseomyces glabratus [6] = assay: Synergistic antifungal activity against Candida glabrata ATCC1182 assessed as fractional inhibitory concentration index incubated for 48 hrs in presence of P163-0892 by broth microdilution method; assay type: functional
[Candida] auris [7] = Synergistic antifungal activity against Candida auris CBS 12372 assessed as fractional inhibitory concentration index incubated for 48 hrs in presence of P163-0892 by broth microdilution method; assay type: functional, Candidozyma auris
Cryptococcus neoformans [8] = assay: Antifungal activity against Cryptococcus neoformans clinical isolate HN20 assessed as fungal growth inhibition incubated for 72 hrs in presence of P163-0892 by broth microdilution method; assay type: functional
Candida albicans = assay: Synergistic antifungal activity against Candida albicans SC5314 assessed as fractional inhibitory concentration index incubated for 48 hrs in presence of P163-0892 by broth microdilution method; assay type: functional
[9] = test system: Cryptococcus gattii species complex; assay: Synergistic antifungal activity against Cryptococcus gattii clinical isolate SCZ20031 assessed as fractional inhibitory concentration index incubated for 72 hrs in presence of P163-0892 by broth microdilution method; assay type: functional
Cryptococcus neoformans [10] = assay: Synergistic antifungal activity against Cryptococcus neoformans clinical isolate HN2-40 assessed as fractional inhibitory concentration index incubated for 72 hrs in presence of P163-0892 by broth microdilution method; assay type: functional
Cryptococcus neoformans [11] = assay: Synergistic antifungal activity against Cryptococcus neoformans clinical isolate HN19 assessed as fractional inhibitory concentration index incubated for 72 hrs in presence of P163-0892 by broth microdilution method; assay type: functional
Cryptococcus neoformans [12] = assay: Synergistic antifungal activity against Cryptococcus neoformans clinical isolate BJ3 assessed as fractional inhibitory concentration index incubated for 72 hrs in presence of P163-0892 by broth microdilution method; assay type: functional
Cryptococcus neoformans [13] = assay: Antifungal activity against Cryptococcus neoformans clinical isolate 445 assessed as fungal growth inhibition incubated for 72 hrs in presence of P163-0892 by broth microdilution method; assay type: functional
Cryptococcus neoformans [14] = assay: Antifungal activity against Cryptococcus neoformans clinical isolate 443 assessed as fungal growth inhibition incubated for 72 hrs in presence of P163-0892 by broth microdilution method; assay type: functional
[15] = test system: Cryptococcus deuterogattii; assay: Synergistic antifungal activity against Cryptococcus gattii WM178 assessed as fractional inhibitory concentration index incubated for 72 hrs in presence of P163-0892 by broth microdilution method; assay type: functional, Cryptococcus gattii species complex
Cryptococcus neoformans [16] = assay: Antifungal activity against Cryptococcus neoformans clinical isolate 56992 assessed as fungal growth inhibition incubated for 72 hrs in presence of P163-0892 by broth microdilution method; assay type: functional
[17] = test system: Cryptococcus gattii species complex; assay: Synergistic antifungal activity against Cryptococcus gattii clinical isolate SCZ20031 assessed as fractional inhibitory concentration index incubated for 72 hrs in presence of Fluconazole by broth microdilution method; assay type: functional
Candida parapsilosis [18] = assay: Synergistic antifungal activity against Candida parapsilosis ATCC22019 assessed as fractional inhibitory concentration index incubated for 48 hrs in presence of Fluconazole by broth microdilution method; assay type: functional
Cryptococcus neoformans [19] = assay: Synergistic antifungal activity against Cryptococcus neoformans clinical isolate HN17 assessed as fractional inhibitory concentration index incubated for 72 hrs in presence of Fluconazole by broth microdilution method; assay type: functional
Cryptococcus neoformans [20] = assay: Synergistic antifungal activity against Cryptococcus neoformans clinical isolate 443 assessed as fractional inhibitory concentration index incubated for 72 hrs in presence of Fluconazole by broth microdilution method; assay type: functional
[21] = Half life in Sprague-Dawley rat at 2 mg/kg,iv by LC-MS/MS analysis; assay type: ADME, organism-based; details: in vivo
[22] = test system: Cryptococcus gattii species complex; assay: Antifungal activity against Cryptococcus gattii E566 assessed as fungal growth inhibition incubated for 72 hrs in presence of Fluconazole by broth microdilution method; assay type: functional
Cryptococcus neoformans [23] = assay: Synergistic antifungal activity against Cryptococcus neoformans clinical isolate SH68 assessed as fractional inhibitory concentration index incubated for 72 hrs in presence of Fluconazole by broth microdilution method; assay type: functional
Cryptococcus neoformans [24] = assay: Antifungal activity against Cryptococcus neoformans clinical isolate HN17 assessed as fungal growth inhibition incubated for 72 hrs in presence of Fluconazole by broth microdilution method; assay type: functional
Nakaseomyces glabratus [25] = assay: Antifungal activity against Candida glabrata ATCC1182 assessed as fungal growth inhibition incubated for 48 hrs in presence of Fluconazole by broth microdilution method; assay type: functional
Cryptococcus neoformans [26] = assay: Synergistic antifungal activity against Cryptococcus neoformans clinical isolate HN20 assessed as fractional inhibitory concentration index incubated for 72 hrs in presence of Fluconazole by broth microdilution method; assay type: functional
Cryptococcus neoformans [27] = assay: Antifungal activity against Cryptococcus neoformans H99 assessed as reduction on fungal growth at 8 ug/ml incubated for 48 hrs by plate reader assay; assay type: functional, organism-based; details: dose 8.0 µg/ml
Cryptococcus neoformans [28] = assay: Antifungal activity against Cryptococcus neoformans clinical isolate HN19 assessed as fungal growth inhibition incubated for 72 hrs in presence of Fluconazole by broth microdilution method; assay type: functional
Candida tropicalis [29] = assay: Antifungal activity against Candida tropicalis ATCC20026 assessed as fungal growth inhibition incubated for 48 hrs in presence of Fluconazole by broth microdilution method; assay type: functional
[30] = Oral bioavailability in Sprague-Dawley rat at 5 mg/kg by LC-MS/MS analysis; assay type: ADME, organism-based; details: in vivo
Candida parapsilosis [31] = assay: Antifungal activity against Candida parapsilosis ATCC22019 assessed as fungal growth inhibition incubated for 48 hrs by broth microdilution method; assay type: functional; details: Lodderomyces parapsilosis
[Candida] auris [32] = Synergistic antifungal activity against Candida auris CBS 12372 assessed as fractional inhibitory concentration index incubated for 48 hrs in presence of Fluconazole by broth microdilution method; assay type: functional, Candidozyma auris
[33] = Cytotoxicity against human Caco-2 cells assessed as cell growth inhibition incubated for 24 hrs by CCK-8 assay; assay type: toxicity, cell-based
Candida tropicalis [34] = assay: Synergistic antifungal activity against Candida tropicalis ATCC20026 assessed as fractional inhibitory concentration index incubated for 48 hrs in presence of Fluconazole by broth microdilution method; assay type: functional
Cryptococcus neoformans [35] = assay: Synergistic antifungal activity against Cryptococcus neoformans clinical isolate HN2 assessed as fractional inhibitory concentration index incubated for 72 hrs in presence of Fluconazole by broth microdilution method; assay type: functional
Cryptococcus neoformans [36] = assay: Antifungal activity against Cryptococcus neoformans clinical isolate HN20 assessed as fungal growth inhibition incubated for 72 hrs in presence of Fluconazole by broth microdilution method; assay type: functional

In the case of `OC(Cn1cncn1)(Cn1cncn1)c1ccc(F)cc1F` [FLUCONAZOLE], the “fractional inhibitory concentration index (FICI)” value (Candida tropicalis [1]) is reported as 0.516, the “fractional inhibitory concentration index (FICI)” value (Candida parapsilosis [2]) is reported as 0.625 and the MIC (Nakaseomyces glabratus [3]) is reported as 4 µg/mL. The MIC (Cryptococcus neoformans [4]) was 1 µg/mL, the “fractional inhibitory concentration index (FICI)” value (Pichia kudriavzevii) was 0.563 and the MIC (Cryptococcus neoformans [5]) was 2 µg/mL. For the same compound, the MIC (Cryptococcus gattii) was 0.5 µg/mL, the “fractional inhibitory concentration index (FICI)” value (Nakaseomyces glabratus [6]) was 0.625 and the “fractional inhibitory concentration index (FICI)” value ([Candida] auris [7]) was 1.008. The MIC (Cryptococcus neoformans [8]) was 0.0625 µg/mL, the “fractional inhibitory concentration index (FICI)” value (Candida albicans) was 1.008 and the “fractional inhibitory concentration index (FICI)” value [9] was 0.25. The “fractional inhibitory concentration index (FICI)” value (Cryptococcus neoformans [10]) was 0.188, the “fractional inhibitory concentration index (FICI)” value (Cryptococcus neoformans [11]) was 0.281 and the “fractional inhibitory concentration index (FICI)” value (Cryptococcus neoformans [12]) was 0.188. The MIC (Cryptococcus neoformans [13]) was 2 µg/mL, the MIC (Cryptococcus neoformans [14]) was 1 µg/mL and the “fractional inhibitory concentration index (FICI)” value [15] was 0.25. The MIC (Cryptococcus neoformans [16]) was 0.25 µg/mL.

With `CCCCNC(=O)c1c(O)c2sccc2n(Cc2ccccc2)c1=O` the “fractional inhibitory concentration index (FICI)” value [17] was 0.25, the “fractional inhibitory concentration index (FICI)” value (Candida parapsilosis [18]) was 0.625 and the “fractional inhibitory concentration index (FICI)” value (Cryptococcus neoformans [19]) was 0.156. For the same compound, the “fractional inhibitory concentration index (FICI)” value (Cryptococcus neoformans [20]) was 0.156, the t1/2 [21] was 7.61 h and the MIC [22] was 0.0313 µg/mL. The “fractional inhibitory concentration index (FICI)” value (Cryptococcus neoformans [23]) was 0.25, the MIC (Cryptococcus neoformans [24]) was 0.0313 µg/mL and the MIC (Nakaseomyces glabratus [25]) was 16 µg/mL. For the same compound, the “fractional inhibitory concentration index (FICI)” value (Cryptococcus neoformans [26]) was 0.375, the Activity (Cryptococcus neoformans [27]) was “Active” and the MIC (Cryptococcus neoformans [28]) was 0.0313 µg/mL. It also gave an MIC (Candida tropicalis [29]) of 2 µg/mL, a bioavailability [30] of 0.8% and an MIC (Candida parapsilosis [31]) of over 64 µg/mL. The “fractional inhibitory concentration index (FICI)” value ([Candida] auris [32]) was 1.008, the IC50 at 24 h [33] was over 256 µg/mL and the “fractional inhibitory concentration index (FICI)” value (Candida tropicalis [34]) was 0.516. For the same compound, the “fractional inhibitory concentration index (FICI)” value (Cryptococcus neoformans [35]) was 0.188 and the MIC (Cryptococcus neoformans [36]) was 0.0625 µg/mL.
